Earlier results in PubChem BioAssay AID1259410 (Chemical Carcinogenesis Research Information System (CCRIS), 2018).

Test system: rodent tumor promotion studies, tumor incidence
Assay: CCRIS tumor promotion studies
Details: Route [Promoter]: DERMAL, Species: MOUSE

In the case of `CCCCCCCCCCCCCC(=O)O[C@@H]1[C@@H](C)[C@@]2(O)[C@@H](C=C(CO)C[C@]3(O)C(=O)C(C)=C[C@@H]23)[C@@H]2C(C)(C)[C@]12OC(C)=O`, the outcome (Carcinogen: 1,2-DIHYDRO-1,2-DIHYDROXY-5,6-DIMETHYLCHRYSENE, 139562-14-4, Doses [Carcinogen]: 33, 100 NMOL IN 0.1 ML ACETONE ONCE, Doses [Promoter]: 0, 2.5 UG IN 0.1 ML ACETONE 3/WK FOR 20 WK BEGINNING 10 D POST CARCINOGEN DOSE (STUDY DURATION: 20 WK), Route [Carcinogen]: DERMAL, Strain/Sex: CD-1/FEMALE) is given as “skin: tumor”, the outcome (Carcinogen: 1,3-DIMETHYLBENZO[B]FLUORANTHRENE, 95741-51-8, Doses [Carcinogen]: 40, 100 NMOL TOTAL DOSES GIVEN IN 10 SUBDOSES 1/2 D IN 0.1 ML ACETONE, Doses [Promoter]: 2.5 UG IN 0.1 ML ACETONE 3/WK FOR 30 WK BEGINNING 10 D POST CARCINOGEN TREATMENT (STUDY DURATION: 34 WK), Route [Carcinogen]: DERMAL, Strain/Sex: CD-1/FEMALE) is given as “skin: tumors” and the outcome (Carcinogen: 1-METHYL-4H-CYCLOPENTA[DEF]PHENANTHRENE, 98090-89-2, Doses [Carcinogen]: 100 UG IN ACETONE (100 µL) 1/2 D FOR A TOTAL OF 10 SUBDOSES (TOTAL DOSE 1 MG), Doses [Promoter]: 0.0025% IN 100 µL ACETONE 3/WK FOR 20 WK BEGINNING POST CARCINOGEN TREATMENT (STUDY DURATION: 23 WK), Route [Carcinogen]: DERMAL, Strain/Sex: CD-1/FEMALE) is given as “skin: tumors”. The outcome (Carcinogen: 1-METHYLBENZO[B]FLUORANTHRENE, 95741-48-3, Doses [Carcinogen]: 100 NMOL TOTAL DOSE GIVEN IN 10 SUBDOSES 1/2 D IN 0.1 ML ACETONE, Doses [Promoter]: 2.5 UG IN 0.1 ML ACETONE 3/WK FOR 30 WK BEGINNING 10 D POST CARCINOGEN TREATMENT (STUDY DURATION: 34 WK), Route [Carcinogen]: DERMAL, Strain/Sex: CD-1/FEMALE) was “skin: tumors”, the outcome (Carcinogen: 2'-(4-NITROPHENOXY)OXIRANE, 59485-08-4, Doses [Carcinogen]: 5 UMOL IN 0.2 ML 15% DMSO IN ACETONE ONCE, Doses [Promoter]: 0, 15 NMOL IN 0.1 ML ACETONE ONCE 18-24 HR PRIOR TO CARCINOGEN DOSE THEN BEGINNING 1 WK LATER 2/WK FOR DURATION OF STUDY, Route [Carcinogen]: DERMAL, Strain/Sex: ICR/FEMALE) was “skin: papilloma” and the outcome (Carcinogen: 2-AMINO-3-METHYL-9H-PYRIDO[2,3-B]INDOLE, 68006-83-7, Doses [Carcinogen]: 0, 4 MG/0.1 ML DMSO 2/WK FOR 5 WK, Doses [Promoter]: 2.5 UG IN 0.1 ML ACETONE 2/WK FOR 47 WK BEGINNING 1 WK POST CARCINOGEN TREATMENT (STUDY DURATION: 48 WK), Route [Carcinogen]: DERMAL, Strain/Sex: CD-1/FEMALE) was “skin: tumor”. The outcome (Carcinogen: 2-AMINO-5-PHENYLPYRIDINE, 33421-40-8, Doses [Carcinogen]: 0, 10 MG/0.1 ML DMSO 2/WK FOR 5 WK, Doses [Promoter]: 2.5 UG IN 0.1 ML ACETONE 2/WK FOR 47 WK BEGINNING 1 WK POST CARCINOGEN TREATMENT (STUDY DURATION: 48 WK), Route [Carcinogen]: DERMAL, Strain/Sex: CD-1/FEMALE) was “skin: tumor”, the outcome (Carcinogen: 2-METHYLBENZO[K]FLUORANTHENE, 95741-57-4, Doses [Carcinogen]: 4 UMOL (TOTAL DOSE) ADMINISTERED IN 10 SUBDOSES 1/2 D, Doses [Promoter]: 2.5 UG IN 0.1 ML ACETONE 3/WK FOR 30 WK BEGINNING 10 D POST CARCINOGEN TREATMENT (STUDY DURATION: 33 WK), Route [Carcinogen]: DERMAL, Strain/Sex: CRL:CD-1/FEMALE) was “skin: tumor” and the outcome (Carcinogen: 3'-AZIDO-2',3'-DIDEOXYTHYMIDINE, 30516-87-1, Doses [Carcinogen]: 0, 25 MG IN 0.5 ML DISTILLED WATER ADMINISTERED TO PREGNANT RATS ON DAYS 12-18 OF GESTATION, Doses [Promoter]: 2 UG IN 0.1 ML DISTILLED WATER 2/WK FOR 17 WK THEN 5 UG IN 0.1 ML DISTILLED WATER 2/WK FROM WK 18 TO 35 ADMINISTERED TO, Route [Carcinogen]: GAVAGE, Strain/Sex: CD-1/MALE,FEMALE) was “skin:tumor”. For the same compound, the outcome (Carcinogen: 3-AMINO-1,4-DIMETHYL-5H-PYRIDO[4,3-B]INDOLE, 62450-06-0, Doses [Carcinogen]: 0, 2 MG/0.1 ML DMSO 2/WK FOR 5 WK, Doses [Promoter]: 2.5 UG IN 0.1 ML ACETONE 2/WK FOR 47 WK BEGINNING 1 WK POST CARCINOGEN TREATMENT (STUDY DURATION: 48 WK), Route [Carcinogen]: DERMAL, Strain/Sex: CD-1/FEMALE) was “skin: tumor”, the outcome (Carcinogen: 3-AMINO-1-METHYL-5H-PYRIDO[4,3-B]INDOLE, 62450-07-1, Doses [Carcinogen]: 0, 2 MG/0.1 ML DMSO 2/WK FOR 5 WK, Doses [Promoter]: 2.5 UG IN 0.1 ML ACETONE 2/WK FOR 47 WK BEGINNING 1 WK POST CARCINOGEN TREATMENT (STUDY DURATION: 48 WK), Route [Carcinogen]: DERMAL, Strain/Sex: CD-1/FEMALE) was “skin: tumor” and the outcome (Carcinogen: 3-METHYLBENZO[B]FLUORANTHRENE, 95741-50-7, Doses [Carcinogen]: 40, 100 NMOL TOTAL DOSE GIVEN IN 10 SUBDOSES 1/2 D IN 0.1 ML ACETONE, Doses [Promoter]: 2.5 UG IN 0.1 ML ACETONE 3/WK FOR 30 WK BEGINNING 10 D POST CARCINOGEN TREATMENT (STUDY DURATION: 34 WK), Route [Carcinogen]: DERMAL, Strain/Sex: CD-1/FEMALE) was “skin: tumors”. For the same compound, the outcome (Carcinogen: 3-METHYLCHOLANTHRENE, 56-49-5, Doses [Promoter]: 0, 1.8 NMOL IN 0.1 ML ACETONE 2/WK FOR 4 WK BEGINNING 6 WK POST CARCINOGEN DOSE (STUDY DURATION: 2 YR), Route [Carcinogen]: SUBCUTANEOUS, Strain/Sex: S/RVCRI/FEMALE) was “skin: tumor”, the outcome (Carcinogen: 4-CYCLOPENTA[DEF]CHRYSEN-4-ONE, 86853-91-0, Doses [Carcinogen]: 100 UG IN ACETONE (100 µL) 1/2 D FOR A TOTAL OF 10 SUBDOSES (TOTAL DOSE 1 MG), Doses [Promoter]: 0.0025% IN 100 µL ACETONE 3/WK FOR 20 WK BEGINNING POST CARCINOGEN TREATMENT (STUDY DURATION: 23 WK), Route [Carcinogen]: DERMAL, Strain/Sex: CD-1/FEMALE) was “skin: tumors” and the outcome (Carcinogen: 4-FLUOROBENZO[B]FLUORANTHENE, 146746-67-0, Doses [Carcinogen]: 10, 40, 120, 400 NMOL (TOTAL DOSE) APPLIED 1/2 D FOR 10 SUBDOSES, Doses [Carcinogen]: 10, 40, 120, 400 NMOL (TOTAL DOSE) APPLIED 1/2 D FOR 10 SUBDOSES, Doses [Promoter]: 0, 2.5 UG IN 100 µL ACETONE 3/WK FOR 20 WK BEGINNING 10 D POST CARCINOGEN TREATMENT (STUDY DURATION: 22 WK), Route [Carcinogen]: DERMAL, Strain/Sex: CRL:CD-1/FEMALE) was “skin: tumor”. The outcome (Carcinogen: 4-FLUOROBENZO[J]FLUORANTHENE, 129286-36-8, Doses [Carcinogen]: 0.3, 1, 2 UMOL (TOTAL DOSE) ADMINISTERED IN SUBDOSES 1/2 D, Doses [Carcinogen]: 0.3, 1, 2 UMOL (TOTAL DOSE) ADMINISTERED IN SUBDOSES 1/2 D, Doses [Promoter]: 2.5 UG IN 100 µL ACETONE 3/WK FOR 20 WK BEGINNING 10 D POST LAST CARCINOGEN DOSE (STUDY DURATION: 27 WK), Route [Carcinogen]: DERMAL, Strain/Sex: CD-1/FEMALE) was “skin: tumor”, the outcome (Carcinogen: 4-NITROPHENYL VINYL ETHER, 940-14-7, Doses [Carcinogen]: 5 UMOL IN 0.2 ML 15% DMSO IN ACETONE ONCE, Doses [Promoter]: 0, 15 NMOL IN 0.1 ML ACETONE ONCE 18-24 HR PRIOR TO CARCINOGEN DOSE THEN BEGINNING 1 WK LATER 2/WK FOR DURATION OF STUDY, Route [Carcinogen]: DERMAL, Strain/Sex: ICR/FEMALE) was “skin: papilloma” and the outcome (Carcinogen: 4H-CYCLOPENTA[DEF]CHRYSENE, 202-98-2, Doses [Carcinogen]: 100 UG IN ACETONE (100 µL) 1/2 D FOR A TOTAL OF 10 SUBDOSES (TOTAL DOSE 1 MG), Doses [Promoter]: 0.0025% IN 100 µL ACETONE 3/WK FOR 20 WK BEGINNING POST CARCINOGEN TREATMENT (STUDY DURATION: 23 WK), Route [Carcinogen]: DERMAL, Strain/Sex: CD-1/FEMALE) was “skin: tumors”. The outcome (Carcinogen: 5,6-DIMETHYLCHRYSENE, 3697-27-6, Doses [Carcinogen]: 100 NMOL IN 0.1 ML ACETONE ONCE, Doses [Promoter]: 0, 2.5 UG IN 0.1 ML ACETONE 3/WK FOR 20 WK BEGINNING 10 D POST CARCINOGEN DOSE (STUDY DURATION: 20 WK), Route [Carcinogen]: DERMAL, Strain/Sex: CD-1/FEMALE) was “skin: tumor”, the outcome (Carcinogen: 5-CHLOROMETHYLFURFURAL, 1623-88-7, Doses [Carcinogen]: 0, 10, 25 UMOL IN O.2 ML ACETONE:DMSO ONCE, Doses [Carcinogen]: 0, 10, 25 UMOL IN O.2 ML ACETONE:DMSO ONCE, Doses [Promoter]: 0, 2.5 UG 2/WK FOR 24 WK BEGINNING 1 WK POST CARCINOGEN DOSE (STUDY DURATION: 24 WK), Route [Carcinogen]: DERMAL, Strain/Sex: CD-1/FEMALE) was “skin: papilloma” and the outcome (Carcinogen: 5-FLUOROBENZO[B]FLUORANTHENE, 146746-68-1, Doses [Carcinogen]: 10, 40, 120, 400 NMOL (TOTAL DOSE) APPLIED 1/2 D FOR 10 SUBDOSES, Doses [Carcinogen]: 10, 40, 120, 400 NMOL (TOTAL DOSE) APPLIED 1/2 D FOR 10 SUBDOSES, Doses [Promoter]: 0, 2.5 UG IN 100 µL ACETONE 3/WK FOR 20 WK BEGINNING 10 D POST CARCINOGEN TREATMENT (STUDY DURATION: 22 WK), Route [Carcinogen]: DERMAL, Strain/Sex: CRL:CD-1/FEMALE) was “skin: tumor”. For the same compound, the outcome (Carcinogen: 5-HYDROXYMETHYLFURFURAL, 67-47-0, Doses [Carcinogen]: 0, 10, 25 UMOL IN 0.2 ML ACETONE:DMSO ONCE, Doses [Carcinogen]: 0, 10, 25 UMOL IN 0.2 ML ACETONE:DMSO ONCE, Doses [Promoter]: 0, 2.5 UG 2/WK FOR 24 WK BEGINNING 1 WK POST CARCINOGEN DOSE (STUDY DURATION: 24 WK), Route [Carcinogen]: DERMAL, Strain/Sex: CD-1/FEMALE) was “skin: papilloma”, the outcome (Carcinogen: 5-METHYLCHRYSENE, 3697-24-3, Doses [Carcinogen]: 33, 100 NMOL IN 0.1 ML ACETONE ONCE, Doses [Promoter]: 2.5 UG IN 0.1 ML ACETONE 3/WK FOR 25 WK BEGINNING 10 D POST INITIATION (STUDY DURATION: 27 WK), Route [Carcinogen]: DERMAL, Strain/Sex: CD-1/FEMALE) was “skin: tumors” and the outcome (Carcinogen: 5-SULFOOXYMETHYLFURFURAL, 159091-35-7, Doses [Carcinogen]: 0, 25 UMOL IN 0.2 ML ACETONE:DMSO ONCE, Doses [Promoter]: 0, 2.5 UG 2/WK FOR 24 WK BEGINNING 1 WK POST CARCINOGEN DOSE (STUDY DURATION: 24 WK), Route [Carcinogen]: DERMAL, Strain/Sex: CD-1/FEMALE) was “skin: papilloma”. The outcome (Carcinogen: 6-FLUOROBENZO[B]FLUORANTHENE, 125811-13-4, Doses [Carcinogen]: 10, 40, 120, 400 NMOL (TOTAL DOSE) APPLIED 1/2 D FOR 10 SUBDOSES, Doses [Carcinogen]: 10, 40, 120, 400 NMOL (TOTAL DOSE) APPLIED 1/2 D FOR 10 SUBDOSES, Doses [Promoter]: 0, 2.5 UG IN 100 µL ACETONE 3/WK FOR 20 WK BEGINNING 10 D POST CARCINOGEN TREATMENT (STUDY DURATION: 22 WK), Route [Carcinogen]: DERMAL, Strain/Sex: CRL:CD-1/FEMALE) was “skin: tumor”.
